Earlier results as cited in US20030157171A1 (priority 2003, published 2003).

Structure (SMILES)	water solubility (in words)	water solubility at pH values below 7.0 (pH below 7.0)
COc1ccc2c(c1)c(CC(=O)O)c(C)n2C(=O)c1ccc(Cl)cc1 [Indomethacin]	poorly water soluble	
C[C@H](CCC(=O)O)[C@H]1CC[C@H]2[C@@H]3[C@@H](O)C[C@@H]4C[C@H](O)CC[C@]4(C)[C@H]3CC[C@]12C [Ursodeoxycholic Acid]		low
